Consider 36 compounds from patent US12209074B2, “SHP2 phosphatase allosteric inhibitor” (BEIJING SHENOGEN PHARMA GROUP LTD., priority 2019, dated 2025).

The experiment has as its system Human non-small cell lung cancer NCI-H358. The experiment is described as follows: Cell proliferation assay (CellTiter-Glu) in NCI-H358. It is filed as cell-based. Conditions: 5 days, NCI-H358 cells, cell viability by CellTiter-Glu, compound 0.3 nM-2 μM, medium and compound renewed after 3 days. On the procedure: Cell proliferation inhibition screening method was established by CellTier-Glu® test reagent from Promega.
Human non-small cell lung cancer NCI-H358 was cultured by RPMI-1640 (Gibco®) medium with 10% fetal bovine serum (Gibco®) at 37° C., 95% air and 5% CO2, in 25 cm^2 or 75 cm^2 plastic culture bottle ((Nunc®) and passaged 2-3 times a week.
The cells were seeded on the 96 well cell culture plate (Nunc®) at the density of 2*10^3/well, 90 μL/well, and cultured at 37° C., 95% air and 5% CO2. The compound to be tested was added 24 hours later: the compound was diluted 3 times with DMSO from the concentration of 2 mM compound (dissolved in DMSO). […] 10 μL of the compound diluted by culture medium was added into the culture plate seeded with cells. The final concentration of DMSO in cell culture medium was 0.1%, and the final concentration of test compound was 0.3 nM-2 μM. The cells were incubated at 37° C. for 3 days. The culture medium was substituted with 90 μL/well fresh complete medium. According to the above diluting method of compounds, the compound to be tested was added.
After 5 days, cell viability was tested by CellTiter-Glu (Promega) kit, and finally, the semi-inhibitory concentration of compounds on cell proliferation, i.e. IC50 was calculated by Prism program.

Regarding `Cc1nc(N2CCC3(CC2)Cc2ccc(NS(C)(=O)=O)cc2[C@H]3N)c(CO)nc1-c1cccc(Cl)c1Cl` [Compound 3, (S)—N-(1-amino-1′-(5-(2,3-dichlorophenyl)-3-(hydroxymethyl)-6-methylpyrazin-2-yl)-1,3-dihydrospiro[indene-2,4′-piperidin]-6-yl) methanesulfonamide], the IC50 (in general, the concentration needed to halve the response being measured) is 273 nM.

For the compound `Cc1nc(N2CCC3(CC2)Cc2ccc(C(C)(C)O)cc2[C@H]3N)c(CO)nc1-c1cccc(Cl)c1Cl` [Compound 4, (S)-2-(1-amino-1′-(5-(2,3-dichlorophenyl)-3-(hydroxymethyl)-6-methylpyrazin-2-yl)-1,3-dihydrospiro[indene-2,4′-piperidin]-6-yl)propan-2-01], the half-maximal inhibitory concentration (IC50) stood at 817 nM. For `Cc1nc(N2CCC3(CC2)Cc2ccc(C(N)=O)cc2[C@H]3N)c(CO)nc1-c1cccc(Cl)c1Cl` [Compound 5, (S)-1-amino-1′-(5-(2,3-dichlorophenyl)-3-(hydroxymethyl)-6-methylpyrazin-2-yl)-1,3-dihydrospiro[indene-2,4′-piperidine]-6-carboxamide] the value was 98 nM.

In the case of `Cc1nc(N2CCC3(CC2)Cc2ccccc2[C@H]3N)c(C(N)=O)nc1-c1cccc(Cl)c1Cl` [Compound 6, (S)-3-(1-amino-1,3-dihydrospiro[indene-2,4′-piperidin]-1′-yl)-6-(2,3-dichlorophenyl)-5-methylpyrazine-2-carboxamide], the half-maximal inhibitory concentration (IC50) was above 1000 nM. `Cc1nc(N2CCC3(CC2)Cc2ccccc2[C@H]3N)c(C#N)nc1-c1cccc(Cl)c1Cl` [Compound 7, (S)-3-(1-amino-1,3-dihydrospiro[indene-2,4′-piperidin]-1′-yl)-6-(2,3-dichlorophenyl)-5-methylpyrazine-2-carbonitrile] came in with an IC50 above 1000 nM. For `Cc1nc(N2CCC3(CC2)Cc2cccc(C#N)c2[C@H]3N)c(CO)nc1-c1cccc(Cl)c1Cl` [Compound 8, (S)-1-amino-1′-(5-(2,3-dichlorophenyl)-3-(hydroxymethyl)-6-methylpyrazin-2-yl)-1,3-dihydrospiro[indene-2,4′-piperidine]-7-carbonitrile] the value was above 1000 nM; for `Cc1nc(N2CCC3(CC2)Cc2cc(NS(C)(=O)=O)ccc2[C@H]3N)c(CO)nc1-c1cccc(Cl)c1Cl` [Compound 9, (S)—N-(1-amino-1′-(5-(2,3-dichlorophenyl)-3-(hydroxymethyl)-6-methylpyrazin-2-yl)-1,3-dihydrospiro[indene-2,4′-piperidin]-5-yl)methanesulfonamide], above 1000 nM. Regarding `Cc1nc(N2CCC3(CC2)Cc2ccccc2[C@H]3N)c(CO)nc1-c1ccnc(N)c1Cl` [Compound 10, (S)-(3-(1-amino-1,3-dihydrospiro[indene-2,4′-piperidin]-1′-yl)-6-(2-amino-3-chloropyridin-4-yl)-5-methylpyrazin-2-yl)methanol], the IC50 is above 1000 nM. The result for `N[C@@H]1c2ccccc2CC12CCN(c1ncc(-c3cccc(Cl)c3Cl)nc1CO)CC2` [Compound 11, (S)-(3-(1-amino-1,3-dihydrospiro[indene-2,4′-piperidin]-1′-yl)-6-(2,3-dichlorophenyl)pyrazin-2-yl)methanol] reads 405 nM.

In turn, `Cc1nc(N2CCC3(CC2)Cc2ccccc2[C@H]3N)c(CO)nc1-c1cccnc1C(F)(F)F` [Compound 12, (S)-(3-(1-amino-1,3-dihydrospiro[indene-2,4′-piperidin]-1′-yl)-5-methyl-6-(2-(trifluoromethyl)pyridin-3-yl)pyrazin-2-yl)methanol] showed an IC50 above 1000 nM. In turn, `COc1ccc2c(c1)[C@@H](N)C1(CCN(c3nc(C)c(-c4cccc(Cl)c4Cl)nc3CO)CC1)C2` [Compound 14] had an IC50 of 56 nM. For `Cc1cccc(-c2nc(CO)c(N3CCC4(CC3)Cc3ccccc3[C@H]4N)nc2C)c1C` [Compound 15], the half-inhibitory concentration (IC50) worked out at 590 nM. As to `Cc1nc(N2CCC3(CC2)Cc2ccccc2[C@H]3N)c(CO)nc1-c1ccccc1Br` [Compound 16], the IC50 turned out to be 261 nM.

The compound `Cc1nc(N2CCC3(CC2)Cc2ccccc2[C@H]3N)c(CO)nc1-c1ccc2[nH]ncc2c1` [Compound 17] showed a half-maximal inhibitory concentration (IC50) of 464 nM. The result for `Cc1nc(N2CCC3(CC2)Cc2ccccc2[C@H]3N)c(CO)nc1-c1ccc2c(cnn2C)c1` [Compound 18] reads 630 nM; that for `Cc1nc(N2CCC3(CC2)Cc2ccccc2[C@H]3N)c(CO)nc1-c1ccnc(Cl)c1Cl` [Compound 19], 29 nM. Regarding `Cc1ccc2c(c1)[C@@H](N)C1(CCN(c3nc(C)c(-c4cccc(Cl)c4Cl)nc3CO)CC1)C2` [Compound 20], the half-inhibitory concentration (IC50) stood at 48 nM. In turn, `Cc1nc(N2CCC3(CC2)Cc2ccccc2[C@H]3N)c(CO)nc1-c1ccc(Cl)c(Cl)c1` [Compound 22] came in with an IC50 of 195 nM. The result for `Cc1nc(N2CCC3(CC2)Cc2ccccc2[C@H]3N)c(CO)nc1-c1ccccc1Cl` [Compound 23] reads 479 nM; that for `Cc1nc(N2CCC3(CC2)Cc2ccccc2[C@@H]3N)c(CO)nc1-c1cccc(Cl)c1Cl` [Compound 24], above 1000 nM. For `Cc1cccc(-c2nc(CO)c(N3CCC4(CC3)Cc3ccccc3[C@H]4N)nc2C)c1Cl` [Compound 25] the value was 37 nM. The result for `Cc1nc(N2CCC3(CC2)Cc2ccccc2[C@H]3N)c(CO)nc1-c1cc2ccccc2[nH]1` [Compound 26] reads 449 nM. The compound `Cc1nc(N2CCC3(CC2)Cc2cc(C(N)=O)ccc2[C@H]3N)c(CO)nc1-c1cccc(Cl)c1Cl` [Compound 27] yielded an IC50 above 1000 nM. The result for `Cc1nc(N2CCC3(CC2)Cc2cccc(Br)c2[C@H]3N)c(CO)nc1-c1cccc(Cl)c1Cl` [Compound 28] reads above 1000 nM; that for `Cc1nc(N2CCC3(CC2)Cc2ccc(N=S(C)(C)=O)cc2[C@H]3N)c(CO)nc1-c1cccc(Cl)c1Cl` [Compound 29], 199 nM; that for `Cc1nc(N2CCC3(CC2)Cc2c(C#N)cccc2[C@H]3N)c(CO)nc1-c1cccc(Cl)c1Cl` [Compound 30], 207 nM.

Turning to `Cc1nc(N2CCC3(CC2)Cc2ccc(S(C)(=O)=O)cc2[C@H]3N)c(CO)nc1-c1cccc(Cl)c1Cl` [Compound 31], the IC50 stood at 249 nM. On to `Cc1nc(N2CCC3(CC2)Cc2ccc(Br)cc2[C@H]3N)c(CO)nc1-c1cccc(Cl)c1Cl` [Compound 32], for which the half-inhibitory concentration (IC50) is 29 nM.

The compound `Cc1nc(N2CCC3(CC2)Cc2ccc(Cl)cc2[C@H]3N)c(CO)nc1-c1cccc(Cl)c1Cl` [Compound 33] registered an IC50 of 17 nM. This IC50 is about 1.7-fold lower than that of the compound before. Compound `Cc1nc(N2CCC3(CC2)Cc2ccc(C(F)(F)F)cc2[C@H]3N)c(CO)nc1-c1cccc(Cl)c1Cl` [Compound 34] displayed an IC50 of 90 nM. `Cc1nc(N2CCC3(CC2)Cc2cccnc2[C@H]3N)c(CO)nc1-c1cccc(Cl)c1Cl` [Compound 35] gave an IC50 of 101 nM. In turn, `Cc1nc(N2CCC3(CC2)Cc2ccc(OC(F)(F)F)cc2[C@H]3N)c(CO)nc1-c1cccc(Cl)c1Cl` [Compound 36] returned a concentration for half-maximal inhibition (IC50) of 31 nM. The result for `Cc1nc(N2CCC3(CC2)Cc2ccncc2[C@H]3N)c(CO)nc1-c1cccc(Cl)c1Cl` [Compound 37] reads 75 nM. Regarding `Cc1nc(N2CCC3(CC2)Cc2cnccc2[C@H]3N)c(CO)nc1-c1cccc(Cl)c1Cl` [Compound 38], the IC50 is above 1000 nM. For `Cc1cnc2c(c1)[C@@H](N)C1(CCN(c3nc(C)c(-c4cccc(Cl)c4Cl)nc3CO)CC1)C2` [Compound 39] the value was 11 nM; for `Cc1nc(N2CCC3(CC2)Cc2ncccc2[C@H]3N)c(CO)nc1-c1ccnc(Cl)c1Cl` [Compound 40], 30 nM.
